Source: patent US7666644B2, “Glyphosate-N-acetyltransferase (GAT) genes” (Verdia, Inc., priority 2004, dated 2010)

Tests used:
[1] = tested on: soybeans expressing GAT and HRA transgenes; assay: T1 pre-emergence sulfonamide spray of soybeans expressing GAT and HRA transgenes; type: in vivo, soybean; design: key: 9=no leaf/stem discoloration; 7=minor leaf/stem discoloration; 5=worse leaf/stem discoloration; 3=severely discolored plant or dying plant; 1=dead plant; conditions: 70 gms a.i./hectare, 10 days post spray, all HRA and GAT events
Description: T1 seed generated from experiments as described in Example 17, were planted in pots of Tama Silt loam in the greenhouse. Pots were immediately sprayed with a pre-emergence application of chlorimuron, rimsulfuron or tribenuron at a rate of 70 gms a.i./hectare. Germinating plants were evaluated 10 days post spray application based on plant discoloration scores described in Example 17. All HRA and GAT events survived all pre-emergence spray applications with a rating of 9 (uninjured).

[2] = tested on: soybeans expressing GAT and HRA transgenes; assay: T1 post-emergence sulfonamide spray of soybeans expressing GAT and HRA transgenes; type: in vivo, soybean; conditions: GAT (SEQ ID NO: 824)/SAMS promoter-HRA events
Description: T1 seed generated from experiments as described in Example 17 were germinated in RediEarth^R 360 medium in the greenhouse. Plants were sprayed at the V2-V3 stage (14 days after potting) with thifensulfuron, chlorimuron, rimsulfuron or tribenuron (70, 70, 35, 35 gm a.i./hectare, respectively). Plants were evaluated 10 days post application based on plant discoloration scores described in Example 17.
Events having a plant discoloration rating 7 or 8 after thifensulfuron spray were sprayed with either a 2× or 4× application of glyphosate after 10 days as per methods described in Example 17. Events were evaluated based on discoloration scores described in Example 17. All thifensulfuron tolerant events survived the glyphosate spray with score of 7 or 8 (results not shown).

[3] = target: T1, Bacillus licheniformis strain B6 glyphosate-N-acetyltransferase (GAT), native, SEQ ID NO:7 (Bacillus paralicheniformis, UniProt A0AAW6KBE1); assay: Apparent KM and kcat of purified GAT (Example 2); type: biochemical; conditions: read-out: KM for Acetyl CoA; apparent; 5 mM glyphosate, 5 mM morpholine pH 7.7, 50% methanol; MS detection
T1 construct: untagged
Description: Lysis of the cells was effected by the addition of 1 ml of the following buffer to 0.2 g of cells: 25 mM HEPES, pH 7.3, 100 mM KCl and 10% methanol (HKM) plus 0.1 mM EDTA, 1 mM DTT, 1 mg/ml chicken egg lysozyme, and a protease inhibitor cocktail obtained from Sigma and used according to the manufacturer's recommendations. After 20 minutes incubation at room temperature (e.g., 22-25° C.), lysis was completed with brief sonication. The lysate was centrifuged and the supernatant was desalted by passage through Sephadex G25 equilibrated with HKM. Partial purification was obtained by affinity chromatography on CoA Agarose (Sigma). The column was equilibrated with HKM and the clarified extract was allowed to pass through under hydrostatic pressure.
Purification to homogeneity was obtained by gel filtration of the partially purified protein through Superdex 75 (Pharmacia).
Initial reaction rates were determined using mass spectrometric detection of N-acetyl glyphosate. Five μl were repeatedly injected into the instrument and reaction rates were obtained by plotting reaction time vs area of the integrated peak (FIG. 6).

[4] = tested on: native or low activity GAT enzymes (glyphosate-N-acetyltransferase); assay: Kinetics typical of native or low activity GAT enzymes (Example 4); type: biochemical; conditions: read-out: KM for acetyl CoA
[5] = tested on: tobacco plants; assay: Herbicide spray tests of GAT expressing tobacco plants; type: in vivo, Nicotiana tabacum
Description: Tobacco shoots generated as described in EXAMPLE 9 were excised from the explants and transferred to basal root induction (BRI) medium composed of half-strength Murashige and Skoog (MS) medium, pH 5.7, with 1.5% sucrose, 0.3% Gelrite, 0-200 uM glyphosate and 400 ug/ml Timentin. Rooted plants and axillary shoots were clonally propagated by cutting the stem and transferring it to fresh BRI medium until the desired number of clones was obtained. Rooted plants were carefully removed from the solid medium. Prior to placing the plants into small pots of soil, the roots were washed to remove any remaining Gelrite. A protective plastic cover was kept over the plants for at least one week until the plants were well established.
To determine if GAT expressing tobacco plants could tolerate simulated field rate sprays of glyphosate, clonal lines of several events per GAT variant were tested. A typical test was set up as follows: One clone from each event was sprayed with 1 ml of solution containing the isopropylamine salt of glyphosate (Sigma P5671) and 0.125% Triton X-100, pH 6.8 such that the amount of active ingredient sprayed was equivalent to that present in commercial glyphosate products. For example, to achieve 32 oz/acre (1×) of herbicide containing 40% active ingredient (“ai”), 2.4 ul of 40% ai formulation was diluted into 1 ml water and sprayed on a plant in a 4-inch square pot (16 in^2). A mock application (0×) with surfactant only was also included. In some cases a second spray was applied 1-4 weeks later. Plants were kept in controlled growth rooms at 25° C. and 70% humidity with 16 hr light.
Seed-grown wild type plants were also sprayed. […] All 0× plants were healthy, including the non-GAT control plants. Three weeks later all of the surviving plants were sprayed with an 8× dose.

[6] = Transfer of the propionyl group from propionyl CoA to glyphosate, DTNB detection; type: biochemical; conditions: 1 mM propionyl CoA, 5 mM glyphosate or no glyphosate, 30 minutes
Description: The ability of GAT variants (B6 (SEQ ID NO:7), 0—6D10 (SEQ ID NO:448), 17-15H3 (SEQ ID NO:601), and 20-8H12c (SEQ ID NO:817)) to transfer the propionyl group from propionyl CoA to glyphosate was tested in reaction mixtures containing 5 mM glyphosate or no glyphosate. Propionyl CoA was present at 1 mM. After 30 minutes the reactions were terminated and the presence of free […] was determined by the addition of DTNB.

[7] = tested on: maize plants; assay: Effect of temperature variation on glyphosate tolerance of T1 maize expressing GAT transgenes; type: in vivo; conditions: cool/cold, warm and hot conditions, 0×, 4×, 6×, 8× glyphosate at V2, scored 5 and 14 days
Description: Maize plants expressing GAT variant transgenes 10—4F2 (SEQ ID NO:203), 17-15H3 (SEQ ID NO:549), and 18-28D9b (SEQ ID NO:814) were produced using the methods described in Example 13. The effect of temperature on glyphosate tolerance was evaluated in T1 plants. The T1 plants were grown in cool/cold (day 14° C., night 8° C.), warm (day 28° C., night 20° C.), and hot (day 37° C., night 20° C.) conditions. T1 plants were sprayed at V2 with four different glyphosate spray treatments (0×, 4×, 6×, and 8×). Plants were scored at 5 and 14 days after treatment for leaf discoloration and plant height comparisons as described in Example 13.

[8] = 70 gm a.i./ha post-emergence at V2-V3, 10 days after treatment
[9] = 35 gm a.i./ha post-emergence at V2-V3, 10 days after treatment

COc1cc(Cl)nc(NC(=O)NS(=O)(=O)c2ccccc2C(=O)O)n1 [Chlorimuron]
plant discoloration rating [1]: 9 | Average Resistance scores [2, 8]: 7.75

CCS(=O)(=O)c1cccnc1S(=O)(=O)NC(=O)Nc1nc(OC)cc(OC)n1 [Rimsulfuron]
plant discoloration rating [1]: 9 | Average Resistance scores [2, 9]: 2.21

COc1nc(C)nc(NC(=O)NS(=O)(=O)c2ccsc2C(=O)O)n1 [Thifensulfuron]
Average Resistance scores [2, 8]: 7.81

CC(=O)SCCNC(=O)CCNC(=O)[C@H](O)C(C)(C)COP(=O)(O)OP(=O)(O)OC[C@H]1O[C@@H](n2cnc3c(N)ncnc32)[C@H](O)[C@@H]1OP(=O)(O)O [acetyl CoA]
Km [3]: 2 µM | Km [4]: < 25 µM

COc1nc(C)nc(N(C)C(=O)NS(=O)(=O)c2ccccc2C(=O)O)n1 [Tribenuron]
plant discoloration rating [1]: 9 | Average Resistance scores [2, 9]: 3.83

B1: 0—6D10: evolved GAT; gene SEQ ID NO:196, enzyme SEQ ID NO:448 (protein)
chain: MLEVKPINAEDTYELRHKILRPNQPLEVCMYETDLLRGAFHLGGFYRGKLISIASFHQAEHSDLQGQKQYQLRGMATLEGYRDQKAGSSLIRHAEQILRKRGADMLWCNARTSASGYYKKLGFSEQGEVFETPPVGPHILMYKRLT
modifications: 0_6D10
outcome two weeks after glyphosate spray ([5]; 0.5, 2 or 4× glyphosate (1× = 32 oz/acre of 40% ai), clonally propagated events, average of 5 leaves): survived the spraying procedure without signs of glyphosate damage | outcome after second spray with an 8× dose ([5]; 8× glyphosate three weeks later): survived | glyphosate-dependent hydrolysis of propionyl CoA [6]: showed glyphosate-dependent hydrolysis of propionyl CoA

B2: 10—4F2: evolved GAT; enzyme SEQ ID NO:454, transgene printed as SEQ ID NO:203 (protein)
chain: MLEVKPINAEDTYELRHRILRPNQPIEACMFESDLLRGAFHLGGFYRGKLISIASFHQAEHSELQGQKQYQLRGMATLEGYREQKAGSSLIRHAEEILRKRGADMLWCNARTSASGYYKKLGFSEQGEIFETPPVGPHILMYKRLT
modifications: 10_4F2
effect of growth temperature on glyphosate tolerance [7]: not adversely effected

B3: 18-28D9b: GAT variant transgene, SEQ ID NO:814 (nucleic acid)
DNA: ATGATAGAGGTGAAACCGATTAACGCAGAGGATACCTATGAACTAAGGCATAGAATACTCAGACCAAACCAGCCGATAGAAGCGTGTATGTTTGAAAGCGATTTACTTCGTGGTGCATTTCACTTAGGCGGCTTTTACAGGGGCAAACTGATTTCCATAGCTTCATTCCACCAGGCCGAGCACTCGGAACTCCAAGGCCAGAAACAGTACCAGCTCCGAGGTATGGCTACCTTGGAAGGTTATCGTGAGCAGAAAGCGGGATCAACTCTAGTTAAACACGCTGAAGAAATCCTTCGTAAGAGGGGGGCGGACATGCTTTGGTGTAATGCGCGGACATCCGCCTCAGGCTACTACAAAAAGTTAGGCTTCAGCGAGCAGGGAGAGATATTTGACACGCCGCCAGTAGGACCTCACATCCTGATGTATAAAAGGATCACATAA
modifications: Synthetic nucleic acid sequence; CDS (1)...(441); 18-28D9b
effect of growth temperature on glyphosate tolerance [7]: not adversely effected

B4: 20-8H12c: GAT variant, SEQ ID NO:817 (protein)
chain: MIEVKPINAEDTYELRHRVLRPNQPIEACIFESDLMRGAFHLGGFYGGRLISVASFHQAEHSELQGQKQYQLRGMATLEGYREQKAGSSLVKHAEEILRKRGADLLWCNARTSASGYYKKLGFSEQGEVFDTPPVGPHILMYKRIT
modifications: 20-8H12c
glyphosate-dependent hydrolysis of propionyl CoA [6]: showed glyphosate-dependent hydrolysis of propionyl CoA
